Results as given in ChEMBL document CHEMBL3853262 (Medchemcomm, 2016).
Activity calls are given as the source filed them. The rule behind the calls is not given here.

Tests used:
NTERA-2-cl-D1 [1] = assay: Proapoptotic activity in human NT2/D1 cells assessed as late apoptotic cells at 25 uM after 3 hrs by annexin V/propidium iodide staining-based capillary cytometric method relative to control; format: functional
THP-1 [2] = assay: Induction of apoptosis in human THP1 cells assessed as late apoptotic cells at 25 uM after 4 hrs by annexin V/propidium iodide staining-based capillary cytometric method (reference value: 0.34%); format: functional
NTERA-2-cl-D1 [3] = assay: Proapoptotic activity in human NT2/D1 cells assessed as necrotic cells at 25 uM after 1 hr by annexin V/propidium iodide staining-based capillary cytometric method relative to control; format: functional
THP-1 [4] = assay: Proapoptotic activity in human THP1 cells assessed as necrotic cells at 25 uM after 5 hrs by annexin V/propidium iodide staining-based capillary cytometric method relative to control; format: functional
BJ = assay: Proapoptotic activity in human BJ cells by annexin V-FITC/propidium iodide staining-based capillary cytometric method; format: functional, cell-based
NTERA-2-cl-D1 [5] = assay: Proapoptotic activity in human NT2/D1 cells assessed as necrotic cells at 25 uM after 7 hrs by annexin V/propidium iodide staining-based capillary cytometric method relative to control; format: functional
ASPC1 = assay: Proapoptotic activity in human AsPC1 cells by annexin V-FITC/propidium iodide staining-based capillary cytometric method; format: functional, cell-based
THP-1 [6] = assay: Proapoptotic activity in human THP1 cells assessed as late apoptotic cells at 25 uM after 3 hrs by annexin V/propidium iodide staining-based capillary cytometric method relative to control; format: functional
THP-1 [7] = assay: Induction of apoptosis in human THP1 cells assessed as […] cells at 25 uM after 4 hrs in presence of pan caspase inhibitor Z-VAD-fmk by annexin V/propidium iodide staining-based capillary cytometric method (reference value: 96.40%); format: functional
NTERA-2-cl-D1 [8] = assay: Induction of apoptosis in human NT2/D1 cells assessed as late apoptotic cells at 25 uM after 4 hrs in presence of pan caspase inhibitor Z-VAD-fmk by annexin V/propidium iodide staining-based capillary cytometric method (reference value: 0.70%); format: functional
THP-1 [9] = assay: Proapoptotic activity in human THP1 cells assessed as necrotic cells at 25 uM after 1 hr by annexin V/propidium iodide staining-based capillary cytometric method relative to control; format: functional
NTERA-2-cl-D1 [10] = assay: Induction of apoptosis in human NT2/D1 cells assessed as necrotic cells at 25 uM after 4 hrs by annexin V/propidium iodide staining-based capillary cytometric method (reference value: 0.10%); format: functional
NTERA-2-cl-D1 [11] = assay: Induction of apoptosis in human NT2/D1 cells assessed as activation of caspase 3/7 by measuring DNA fragmentation at 25 uM after 3 hrs by 7-AAD staining-based capillary cytometric method; format: functional, cell-based
THP-1 [12] = assay: Proapoptotic activity in human THP1 cells assessed as viable cells at 25 uM after 7 hrs by annexin V/propidium iodide staining-based capillary cytometric method relative to control; format: functional; conditions: THP-1, 7 h, read-out: Activity
NTERA-2-cl-D1 [13] = assay: Proapoptotic activity in human NT2/D1 cells assessed as early apoptotic cells at 25 uM after 5 hrs by annexin V/propidium iodide staining-based capillary cytometric method relative to control; format: functional
NTERA-2-cl-D1 [14] = assay: Induction of DNA fragmentation in human NT2/D1 cells at 25 uM after 6 to 24 hrs by propidium iodide/RNase staining-based capillary cytometric method; format: functional, cell-based
NTERA-2-cl-D1 [15] = assay: Proapoptotic activity in human NT2/D1 cells assessed as early apoptotic cells at 25 uM after 3 hrs by annexin V/propidium iodide staining-based capillary cytometric method relative to control; format: functional
NTERA-2-cl-D1 [16] = assay: Induction of apoptosis in human NT2/D1 cells assessed as necrotic cells at 25 uM after 4 hrs in presence of pan caspase inhibitor Z-VAD-fmk by annexin V/propidium iodide staining-based capillary cytometric method (reference value: 0.10%); format: functional
THP-1 [17] = assay: Proapoptotic activity in human THP1 cells assessed as late apoptotic cells at 25 uM after 5 hrs by annexin V/propidium iodide staining-based capillary cytometric method relative to control; format: functional
THP-1 [18] = assay: Proapoptotic activity in human THP1 cells assessed as late apoptotic cells at 25 uM after 7 hrs by annexin V/propidium iodide staining-based capillary cytometric method relative to control; format: functional
NTERA-2-cl-D1 [19] = assay: Proapoptotic activity in human NT2/D1 cells by annexin V-FITC/propidium iodide staining-based capillary cytometric method; format: functional, cell-based
THP-1 [20] = assay: Proapoptotic activity in human THP1 cells assessed as viable cells at 25 uM after 5 hrs by annexin V/propidium iodide staining-based capillary cytometric method relative to control; format: functional; conditions: THP-1, 5 h, read-out: Activity
NTERA-2-cl-D1 [21] = assay: Proapoptotic activity in human NT2/D1 cells assessed as necrotic cells at 25 uM after 3 hrs by annexin V/propidium iodide staining-based capillary cytometric method relative to control; format: functional
THP-1 [22] = assay: Induction of apoptosis in human THP1 cells assessed as early apoptotic cells at 25 uM after 4 hrs by annexin V/propidium iodide staining-based capillary cytometric method (reference value: 3.22%); format: functional
NTERA-2-cl-D1 [23] = assay: Induction of apoptosis in human NT2/D1 cells assessed as viable cells at 25 uM after 4 hrs in presence of pan caspase inhibitor Z-VAD-fmk by annexin V/propidium iodide staining-based capillary cytometric method (reference value: 95.80%); format: functional; conditions: NTERA-2-cl-D1, 4 h, read-out: Activity
THP-1 [24] = assay: Proapoptotic activity in human THP1 cells assessed as early apoptotic cells at 25 uM after 7 hrs by annexin V/propidium iodide staining-based capillary cytometric method relative to control; format: functional
NTERA-2-cl-D1 [25] = assay: Proapoptotic activity in human NT2/D1 cells assessed as early apoptotic cells at 25 uM after 7 hrs by annexin V/propidium iodide staining-based capillary cytometric method relative to control; format: functional
THP-1 [26] = assay: Proapoptotic activity in human THP1 cells assessed as early apoptotic cells at 25 uM after 5 hrs by annexin V/propidium iodide staining-based capillary cytometric method relative to control; format: functional
NTERA-2-cl-D1 [27] = assay: Induction of apoptosis in human NT2/D1 cells assessed as late apoptotic cells at 25 uM after 4 hrs by annexin V/propidium iodide staining-based capillary cytometric method (reference value: 0.70%); format: functional

CNc1nc(-c2cccc(NC(=O)c3cc4ccccc4[nH]3)c2)c[nH]1.Cl
Activity (NTERA-2-cl-D1 [1]): 3.24%
Activity (THP-1 [2]): 89.44%
Activity (NTERA-2-cl-D1 [3]): 0.11%
Activity (THP-1 [4]): 0.1%
EC50 (BJ): 21 µM
Activity (NTERA-2-cl-D1 [5]): 0%
EC50 (ASPC1): 32 µM
Activity (THP-1 [6]): 16.53%
Activity (THP-1 [7]): 18.04%
Activity (NTERA-2-cl-D1 [8]): 2.87%
Activity (THP-1 [9]): 0.2%
Activity (NTERA-2-cl-D1 [10]): 0.3%
Activity (NTERA-2-cl-D1 [11]): Active
viability at 25 µM (THP-1 [12]): 17.8%
Activity (NTERA-2-cl-D1 [13]): 46.36%
Activity (NTERA-2-cl-D1 [14]): Active
Activity (NTERA-2-cl-D1 [15]): 22.77%
Activity (NTERA-2-cl-D1 [16]): 0.17%
Activity (THP-1 [17]): 38.05%
Activity (THP-1 [18]): 45.9%
EC50 (NTERA-2-cl-D1 [19]): 11 µM
viability at 25 µM (THP-1 [20]): 28.6%
Activity (NTERA-2-cl-D1 [21]): 0.11%
Activity (THP-1 [22]): 4.96%
viability at 25 µM (NTERA-2-cl-D1 [23]): 88.8%
Activity (THP-1 [24]): 36.14%
Activity (NTERA-2-cl-D1 [25]): 55.66%
Activity (THP-1 [26]): 33.25%
Activity (NTERA-2-cl-D1 [27]): 5.16%
